Earlier results, collected in patent US20120059599A1, “HYBRID FRAGMENT-LIGAND MODELING FOR C[…] COMPOUNDS” (UNIVERSITY OF LOUISVILLE, priority 2010, published 2012).

Columns and labels:
Salmonella = settings: reported in the CPDB
[1] = has been demonstrated
mammary = settings: reported in the CPDB
estrogen receptor = settings: has been demonstrated
humans = settings: IARC
experimental animals = settings: IARC

Row | Structure (SMILES) | Salmonella mutagenicity (Salmonella) | genotoxic carcinogen [1] | mammary carcinogenicity (mammary) | estrogen receptor ligand (estrogen receptor) | evidence to determine carcinogenicity in humans (humans) | evidence for carcinogenicity in experimental animals (experimental animals)
1 | CCNc1nc(Cl)nc(NC(C)C)n1 [Atrazine] | non-mutagen |  |  |  |  | 
2 | Cn1c(N)nc2ncc(-c3ccccc3)cc21 [PhIP, 2-amino-1-methyl-6-phenylimidazo[4,5-b]pyridine] | mutagen | genotoxic carcinogen | mammary carcinogen | estrogen receptor ligand | inadequate evidence | antiquated evidence
